target: T1, human androgen receptor (hAR) (Homo sapiens, UniProt P10275); test: Competitive binding analysis on baculovirus/Sf9 generated hAR extracts with 3H-DHT tracer; conditions: hAR extract, 1 nM 3H-DHT, one hour at 4° C; mean of multiple tests; read-out: AR Binding IC50
T1 construct: made in house; host or cells: baculovirus/Sf9 insect cells (crude extract)
T1 sequence (P10275 1-920): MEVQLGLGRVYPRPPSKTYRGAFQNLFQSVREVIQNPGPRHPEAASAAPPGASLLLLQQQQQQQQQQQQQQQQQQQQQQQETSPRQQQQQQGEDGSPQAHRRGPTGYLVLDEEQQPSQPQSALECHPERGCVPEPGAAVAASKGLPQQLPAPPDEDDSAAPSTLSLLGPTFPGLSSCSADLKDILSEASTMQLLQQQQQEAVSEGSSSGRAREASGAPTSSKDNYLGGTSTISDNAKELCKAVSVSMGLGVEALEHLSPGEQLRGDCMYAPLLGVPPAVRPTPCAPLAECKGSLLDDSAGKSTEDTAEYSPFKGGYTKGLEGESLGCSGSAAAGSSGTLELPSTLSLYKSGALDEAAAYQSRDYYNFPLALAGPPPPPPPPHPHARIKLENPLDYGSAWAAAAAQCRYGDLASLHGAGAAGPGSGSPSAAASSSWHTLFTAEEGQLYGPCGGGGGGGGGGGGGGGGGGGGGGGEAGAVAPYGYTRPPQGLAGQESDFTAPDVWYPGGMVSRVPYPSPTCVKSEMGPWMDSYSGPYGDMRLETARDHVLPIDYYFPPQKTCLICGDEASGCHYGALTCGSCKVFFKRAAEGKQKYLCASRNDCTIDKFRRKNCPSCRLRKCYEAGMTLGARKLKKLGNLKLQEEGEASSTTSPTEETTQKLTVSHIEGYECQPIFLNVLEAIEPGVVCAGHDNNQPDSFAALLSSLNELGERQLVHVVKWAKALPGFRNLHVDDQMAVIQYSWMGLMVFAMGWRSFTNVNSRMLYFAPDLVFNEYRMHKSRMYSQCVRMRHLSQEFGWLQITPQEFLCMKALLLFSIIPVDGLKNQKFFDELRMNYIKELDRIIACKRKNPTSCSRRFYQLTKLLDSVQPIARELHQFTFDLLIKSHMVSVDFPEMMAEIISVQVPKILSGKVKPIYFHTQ
Experimental: The compounds of Formula I have affinity for the androgen receptor. […] The description below describes how the assay was carried out.
Competitive binding analysis was performed on baculovirus/Sf9 generated hAR extracts in the presence or absence of different concentrations of test agent and a fixed concentration of ^3H-dihydrotestosterone (^3H-DHT) as tracer. This binding assay method is a modification of a protocol previously described (Liao S., et. al. J. Steroid Biochem. 20:11-17 1984). Briefly, progressively decreasing concentrations of compounds are incubated in the presence of hAR extract (Chang et al. P.N.A.S. Vol. 89, pp. […], 1992), hydroxylapatite, and 1 nM^3H-DHT for one hour at 4° C. Subsequently, the binding reactions are washed three times to completely remove excess unbound ^3H-DHT. hAR bound ^3H-DHT levels are determined in the presence of compounds (=i.e competitive binding) and compared to levels bound when no competitor is present (=i.e. maximum binding). Compound binding affinity to the hAR is expressed as the concentration of compound at which one half of the maximum binding is inhibited. Table II below provides the results that were obtained for selected compounds (reported data is the mean of multiple tests as shown below)

Molecule	IC50
CCCOCCCNC(=O)C(CCC)Oc1ccc(C#N)c(C(F)(F)F)c1 (stereo not shown) [Example 115, 2-(4-Cyano-3-trifluoromethyl-phenoxy)-pentanoic acid (3-propoxy-propyl)-amide]	0.428 µM
Cc1ncccc1CNC(=O)C(CC(C)C)Oc1ccc(C#N)c(C(F)(F)F)c1 (stereo not shown) [Example 76, 2-(4-Cyano-3-trifluoromethyl-phenoxy)-4-methyl-pentanoic acid (2-methyl-pyridin-3-yl-methyl)-amide]	0.479 µM
CCCC(Oc1ccc(C#N)cc1Cl)C(=O)OCC (stereo not shown) [Example 100, 2-(2-Chloro-4-cyano-phenoxy)-pentanoic acid ethyl ester]	0.347 µM
CCCC(Oc1ccc(C#N)c(C(F)(F)F)c1)C(=O)NCc1cccc2ccccc12 (stereo not shown) [Example 77, 2-(4-Cyano-3-trifluoromethyl-phenoxy)-pentanoic acid (naphthalene-1-yl-methyl)amide]	0.292 µM
CCC(C)CNC(=O)C(CC(C)C)Oc1ccc(C#N)c(C(F)(F)F)c1 (stereo not shown) [Example 75, 2-(4-Cyano-3-trifluoromethyl-phenoxy)-4-methyl-pentanoic acid-(2-methyl-butyl)amide]	0.417 µM
CCCC(Oc1ccc(C#N)c(C(F)(F)F)c1)C(=O)NCC1Cc2ccccc2CO1 (stereo not shown) [Example 32, 2-(4-Cyano-3-trifluoromethyl-phenoxy)-pentanoic acid (isochroman-3-yl-methyl)amide]	0.407 µM
CCCC(Oc1ccc(C#N)c(C(F)(F)F)c1)C(=O)NCCc1ccc(C)cc1 (stereo not shown) [Example 50, 2-(4-Cyano-3-trifluoromethyl-phenoxy)-pentanoic acid-(2-p-tolyl-ethyl)-amide]	0.399 µM
2-(4-Cyano-3-trifluoromethyl-phenoxy)-4-methyl-pentanoic acid (2H-imidazo[1,2-a]pyridin-3-yl)-methyl)amide [Example 60]	0.318 µM
CSCCCNC(=O)C(CC(C)C)Oc1ccc(C#N)c(C(F)(F)F)c1 (stereo not shown) [Example 21, 2-(4-Cyano-3-trifluoromethyl-phenoxy)-4-methyl-pentanoic acid (3-methylsulfanyl-propyl)-amide]	0.362 µM
CCCC(Oc1ccc(C#N)c(C(F)(F)F)c1)C(=O)NC(C)c1ccc(O)cc1 (stereo not shown) [Example 6, 2-(4-Cyano-3-trifluoromethyl-phenoxy)-pentanoic acid [1-(4-hydroxy-phenyl)ethyl]-amide]	0.455 µM
CCCC(Oc1ccc(C#N)c(C(F)(F)F)c1)C(=O)N(Cc1ccccc1)C(C)C (stereo not shown) [Example 67, 2-(4-Cyano-3-trifluoromethyl-phenoxy)-pentanoic acid benzyl-isopropyl-amide]	0.44 µM
CCCC(Oc1ccc(C#N)c(C(F)(F)F)c1)C(=O)NC(C)c1cccs1 (stereo not shown) [Example 17, 2-(4-Cyano-3-trifluoromethyl-phenoxy)-pentanoic acid (1-thiophen-2-yl-ethyl)amide]	1 µM
CC(C)CC(Oc1ccc(C#N)c(C(F)(F)F)c1)C(=O)NC(C)c1ccc(O)cc1 (stereo not shown) [Example 69, 2-(4-Cyano-3-trifluoromethyl-phenoxy)-4-methyl-pentanoic acid [1-(4-hydroxyphenyl)-ethyl]-amide]	0.341 µM
CCCC(Oc1ccc(C#N)c(C(F)(F)F)c1)C(=O)NCc1cccc(OC)c1 (stereo not shown) [Example 40, 2-(4-Cyano-3-trifluoromethyl-phenoxy)-pentanoic acid-3-methoxy-benzylamide]	0.241 µM
Cc1cccnc1CNC(=O)C(CC(C)C)Oc1ccc(C#N)c(C(F)(F)F)c1 (stereo not shown) [Example 20, 2-(4-Cyano-3-trifluoromethyl-phenoxy)-4-methyl-pentanoic acid (3-methyl-pyridin-2-yl-methyl)-amide]	0.41 µM
CCCC(Oc1ccc(C#N)c(C(F)(F)F)c1)C(=O)Nc1ccc(C)c(O)c1 (stereo not shown) [Example 116, 2-(4-Cyano-3-trifluoromethyl-phenoxy)-pentanoic acid (3-hydroxy-4-methyl-phenyl)-amide]	0.296 µM

Source: patent US7507860B2 (Pfizer Inc., priority 2004, dated 2009)
